“Also recorded” adds a separate entry of the source.
Assays:
CD8^+ T cells = format: cell-based, C57BL/6 mice
EL4 cells = test: Immunization with TSA-pulsed DCs followed by live EL4 cell challenge and rechallenge; format: in vivo, C57BL/6 mice; settings: for day-150 survival rate / mice with prolonged survival after priming: immunized twice with TSA-pulsed DCs, 5×10^5 live EL4 cells i.v. day 0; for outcome of rechallenge with live EL4 cells at day 150: surviving immunized mice rechallenged at day 150
Protocol: Generation of bone marrow-derived dendritic cells (DCs), mouse immunization and EL4 cell injection. Bone marrow—derived DCs were generated as previously described^13a,14a. For mouse immunization, DCs from male C57BL/6 mice were pulsed with 2 μM of the selected peptide for 3 hours, then washed. 8- to 12-week old female C57BL/6 mice were injected i.v. with 10^6 individually peptide-pulsed DCs at day −14 and −7, or with irradiated EL4 cells (10,000 cGy). As negative control, C57BL/6 female mice were immunized with unpulsed DCs. At day 0 and day 150, mice were injected i.v. with 5×10^5 EL4 cells and were monitored for weight loss, paralysis, or tumor outgrowth.

[1] = literature references 9, 37; cited from earlier work

| Sequence | frequency of antigen-specific CD8 T cells in naive mice (CD8^+ T cells) | day-150 survival rate (EL4 cells) | outcome of rechallenge with live EL4 cells at day 150 (EL4 cells) | further results |
| --- | --- | --- | --- | --- |
| VNYIHRNV (VNYXHRNV; VARIANT (4)..(4) Xaa is Ile or Leu; listed as Mus musculus) | frequencies similar to those of the viral controls | 20% | not sufficient to protect mice upon rechallenge; also recorded: no significant protection upon rechallenge | tetramer^+ CD8 T cells in long-term survivors after rechallenge (CD8^+ T cells): large population of tetramer^+ cells; time to death from leukemia after rechallenge (EL4 cells; surviving immunized mice rechallenged with EL4 cells at day 150): ≤ 50 days |
| TVPLNHNTL (listed as Mus musculus) [EL4 TSA] | less than one | surviving up day 150 | survived the rechallenge | mice with prolonged survival after priming (EL4 cells): 10% |
| KAVYNFATC [gp-33, reference compound] | within range of those observed in previous studies | – | – | – |
| HGIRNASFI (listed as Murine cytomegalovirus) [M45, H-2db, reference compound] | within range of those observed in previous studies | – | – | – |
| VNYLHRNV (VNYXHRNV; VARIANT (4)..(4) Xaa is Ile or Leu; listed as Mus musculus) | frequencies similar to those of the viral controls | 100% | survived the rechallenge | rank of protection against EL4 challenge (EL4 cells; immunization with TSA-pulsed DCs): best protection |
| SPSYVYHQF (listed as Mus musculus) [AH1 peptide, aeTSA previously identified on CT26 cells] | – | – | – | antitumor responses and adverse effects [1]: elicits strong antitumor responses devoid of adverse effects |
| TSYKFESV [B8R, reference compound] | within range of those observed in previous studies | – | – | – |
| IILEFHSL (listed as Mus musculus) [EL4 TSA] | less than one | – | – | mice with prolonged survival after priming (EL4 cells): 10% |

— patent US11702450B2, “Proteogenomic-based method for identifying tumor-specific antigens” (UNIVERSITÉ DE MONTRÉAL, priority 2018, dated 2023)
